Reference: patent US20240216381A1, “Px-cholorogenic Acid Comps” (PX ING, LLC, priority 2022, published 2024)

Tests used:
brain biomarkers [1] = experiment: Brain biomarkers in rats of the Elevated Plus Maze example; format: in vivo, Swiss Albino Wistar rats; design: Achetylcholine, Improvement over P-Control / Dopamine, Improvement over P-Control / Glutathione, Improvement over P-Control / Catalse, Improvement over P-Control / BDNF, Improvement over P-Control / Serotonin, Improvement over P-Control / Cortisol, Improvement over P-Control: concentration or dose not given beside the values; settings: for Achetylcholine, brain biomarker / BDNF, brain biomarker / Catalse, brain biomarker / Cortisol, brain biomarker / Dopamine, brain biomarker / Glutathione, brain biomarker / Serotonin, brain biomarker: oral ten days, Scopolamine 1 mg/kg; for Achetylcholine, Improvement over P-Control / BDNF, Improvement over P-Control / Catalse, Improvement over P-Control / Cortisol, Improvement over P-Control / Dopamine, Improvement over P-Control / Glutathione, Improvement over P-Control / Serotonin, Improvement over P-Control: vs Pathological Control (Scopolamine)
Protocol: (§1) The rats were randomized into nine groups containing eight rats in each group. […] The rats were treated with test substances daily for ten consecutive days.
(§2) On the tenth day test, test substances were administered orally thirty minutes before a 1 mg/kg body weight Scopolamine injection to induce amnesia in rats to all groups except control group. Administration of the Scopolamine injections were done via intraperitoneal injection. This was followed by behavioral test using Elevated Plus Maze apparatus to measure the long-term memory enhancing activity.
(§3) Several brain biomarkers were also measured in the rats.

[2] = test system: Scopolamine induced amnesia in rats; experiment: Cognitive enhancing effect, Elevated Plus Maze, Scopolamine induced amnesia in rats; format: in vivo, Swiss Albino Wistar rats; settings: for rat escape latency, Elevated Plus Maze: oral daily for ten days, day 10, 30 min before 1 mg/kg Scopolamine i.p., 50 mg HED PX or 1-MX, 25 mg HED CA; for rat escape latency, Elevated Plus Maze, Improvement over P-Control: vs Pathological Control (Scopolamine)
Protocol: (§4) The example was to evaluate the effect of the test substances on behavioral activity/memory enhancing activity in experimental rats.
as §1, §2

brain biomarkers [3] = experiment: Brain biomarkers in rats of the Morris Water Maze example; format: in vivo, Swiss Albino Wistar rats; design: Achetylcholine, Improvement over P-Control / Dopamine, Improvement over P-Control / Glutathione, Improvement over P-Control: concentration or dose not given beside the values; settings: for Achetylcholine, brain biomarker / Dopamine, brain biomarker / Glutathione, brain biomarker: oral ten days, Scopolamine 1 mg/kg; for Achetylcholine, Improvement over P-Control / Dopamine, Improvement over P-Control / Glutathione, Improvement over P-Control: vs Pathological Control (Scopolamine)
Protocol: as §1
as §2, with “Morris Water” for “Elevated Plus”
as §3

[4] = test system: Pentobarbital Sodium induced sleep activity in experimental mice; experiment: Pentobarbital Sodium induced sleep activity in mice; format: in vivo, Swiss Albino Mice; settings: 50 mg HED PX or 1-MX, 25 mg HED CA; for Duration of sleep / Onset time of sleep: test substance intraperitoneal 30 min before 40 mg/kg Pentobarbital sodium; for Duration of sleep, Improvement over P-Control / Onset time of sleep, Improvement over P-Control: vs Pathological Control
Protocol: The present example was conducted to evaluate the efficacy of test substances on Pentobarbital Sodium induced sleep activity in experimental mice.
The mice were randomized into nine groups containing eight mice in each group. […] The dose information can be found below in Table 2.
On the day of experiment, mice from different groups were treated with the control and test substances respectively. After thirty minutes, all groups of mice, except for the Normal Control group were, administered with 40 mg/kg body doses of Pentobarbital sodium to induce sleep. Administration of the test substances was done via intraperitoneal injection. The onset time of sleep was recorded for all the mice. After induction of sleep, mice were placed in the inverted position and when sedation was over, time point where the mice return to its normal posture was noted. The time interval between dosing and start of sleep was recorded as latency time.

[5] = test system: Scopolamine induced amnesia in rats; experiment: Cognitive enhancing effect, Morris Water Maze, Scopolamine induced amnesia in rats; format: in vivo, Swiss Albino Wistar rats; settings: for rat escape latency, Morris Water Maze: oral daily for ten days, day 10, 30 min before 1 mg/kg Scopolamine i.p., 50 mg HED PX or 1-MX, 25 mg HED CA; for rat escape latency, Morris Water Maze, Improvement over P-Control: vs Pathological Control (Scopolamine)
Protocol: as §4, §1
as §2, with “Morris Water” for “Elevated Plus”

Cn1c(=O)[nH]c2nc[nH]c2c1=O [1-Methylxanthine, 1-methylxanthine]
Achetylcholine, brain biomarker (brain biomarkers [1]): 28.97 U/ml | BDNF, brain biomarker (brain biomarkers [1]): 17.29 pg/mL | Catalse, brain biomarker (brain biomarkers [1]): 155.96 U/mL | Cortisol, brain biomarker (brain biomarkers [1]): 79.4 ng/mL | Dopamine, brain biomarker (brain biomarkers [1]): 14.51 ng/L | Glutathione, brain biomarker (brain biomarkers [1]): 17.94 µg/mL | Serotonin, brain biomarker (brain biomarkers [1]): 41.63 ng/mL | Achetylcholine, Improvement over P-Control (brain biomarkers [1]): 34% | BDNF, Improvement over P-Control (brain biomarkers [1]): 31% | Catalse, Improvement over P-Control (brain biomarkers [1]): 29% | Cortisol, Improvement over P-Control (brain biomarkers [1]): −12% | Dopamine, Improvement over P-Control (brain biomarkers [1]): 25% | Glutathione, Improvement over P-Control (brain biomarkers [1]): 32% | Serotonin, Improvement over P-Control (brain biomarkers [1]): −12% | rat escape latency, Elevated Plus Maze [2]: 33.89 s | rat escape latency, Elevated Plus Maze, Improvement over P-Control [2]: 49% | Achetylcholine, brain biomarker (brain biomarkers [3]): 30.87 U/ml | Dopamine, brain biomarker (brain biomarkers [3]): 13.66 ng/L | Glutathione, brain biomarker (brain biomarkers [3]): 16.06 µg/mL | Achetylcholine, Improvement over P-Control (brain biomarkers [3]): 53% | Dopamine, Improvement over P-Control (brain biomarkers [3]): 33% | Glutathione, Improvement over P-Control (brain biomarkers [3]): 34% | Duration of sleep [4]: 57.75 min | Onset time of sleep [4]: 42.25 min | Duration of sleep, Improvement over P-Control [4]: 107% | Onset time of sleep, Improvement over P-Control [4]: −16% | rat escape latency, Morris Water Maze [5]: 32.43 s | rat escape latency, Morris Water Maze, Improvement over P-Control [5]: 51%

Cn1c(=O)[nH]c2ncn(C)c2c1=O [Paraxanthine]
Achetylcholine, brain biomarker (brain biomarkers [1]): 32.04 U/ml | BDNF, brain biomarker (brain biomarkers [1]): 17.72 pg/mL | Catalse, brain biomarker (brain biomarkers [1]): 159.83 U/mL | Cortisol, brain biomarker (brain biomarkers [1]): 73.99 ng/mL | Dopamine, brain biomarker (brain biomarkers [1]): 15.06 ng/L | Glutathione, brain biomarker (brain biomarkers [1]): 19.57 µg/mL | Serotonin, brain biomarker (brain biomarkers [1]): 38.03 ng/mL | Achetylcholine, Improvement over P-Control (brain biomarkers [1]): 49% | BDNF, Improvement over P-Control (brain biomarkers [1]): 34% | Catalse, Improvement over P-Control (brain biomarkers [1]): 32% | Cortisol, Improvement over P-Control (brain biomarkers [1]): −18% | Dopamine, Improvement over P-Control (brain biomarkers [1]): 30% | Glutathione, Improvement over P-Control (brain biomarkers [1]): 44% | Serotonin, Improvement over P-Control (brain biomarkers [1]): −20% | rat escape latency, Elevated Plus Maze [2]: 36.66 s | rat escape latency, Elevated Plus Maze, Improvement over P-Control [2]: 38% | Achetylcholine, brain biomarker (brain biomarkers [3]): 34.16 U/ml | Dopamine, brain biomarker (brain biomarkers [3]): 14.21 ng/L | Glutathione, brain biomarker (brain biomarkers [3]): 17.47 µg/mL | Achetylcholine, Improvement over P-Control (brain biomarkers [3]): 69% | Dopamine, Improvement over P-Control (brain biomarkers [3]): 38% | Glutathione, Improvement over P-Control (brain biomarkers [3]): 46% | Duration of sleep [4]: 66.13 min | Onset time of sleep [4]: 41.5 min | Duration of sleep, Improvement over P-Control [4]: 137% | Onset time of sleep, Improvement over P-Control [4]: −18% | rat escape latency, Morris Water Maze [5]: 30.46 s | rat escape latency, Morris Water Maze, Improvement over P-Control [5]: 61%

O=C(/C=C/c1ccc(O)c(O)c1)O[C@@H]1C[C@](O)(C(=O)O)C[C@@H](O)[C@H]1O [Chlorogenic acid]
Achetylcholine, brain biomarker (brain biomarkers [1]): 33.17 U/ml | BDNF, brain biomarker (brain biomarkers [1]): 18.05 pg/mL | Catalse, brain biomarker (brain biomarkers [1]): 161.91 U/mL | Cortisol, brain biomarker (brain biomarkers [1]): 68.51 ng/mL | Dopamine, brain biomarker (brain biomarkers [1]): 15.58 ng/L | Glutathione, brain biomarker (brain biomarkers [1]): 19.89 µg/mL | Serotonin, brain biomarker (brain biomarkers [1]): 38.43 ng/mL | Achetylcholine, Improvement over P-Control (brain biomarkers [1]): 54% | BDNF, Improvement over P-Control (brain biomarkers [1]): 37% | Catalse, Improvement over P-Control (brain biomarkers [1]): 34% | Cortisol, Improvement over P-Control (brain biomarkers [1]): −24% | Dopamine, Improvement over P-Control (brain biomarkers [1]): 34% | Glutathione, Improvement over P-Control (brain biomarkers [1]): 46% | Serotonin, Improvement over P-Control (brain biomarkers [1]): −19% | rat escape latency, Elevated Plus Maze [2]: 30 s | rat escape latency, Elevated Plus Maze, Improvement over P-Control [2]: 68% | Achetylcholine, brain biomarker (brain biomarkers [3]): 33.03 U/ml | Dopamine, brain biomarker (brain biomarkers [3]): 14.74 ng/L | Glutathione, brain biomarker (brain biomarkers [3]): 16.85 µg/mL | Achetylcholine, Improvement over P-Control (brain biomarkers [3]): 63% | Dopamine, Improvement over P-Control (brain biomarkers [3]): 43% | Glutathione, Improvement over P-Control (brain biomarkers [3]): 41% | Duration of sleep [4]: 74.88 min | Onset time of sleep [4]: 40.5 min | Duration of sleep, Improvement over P-Control [4]: 169% | Onset time of sleep, Improvement over P-Control [4]: −20% | rat escape latency, Morris Water Maze [5]: 28.54 s | rat escape latency, Morris Water Maze, Improvement over P-Control [5]: 72%
